{"source": "the NIST ThermoML archive (doi:10.1016/j.jct.2018.11.004)", "test": "molar heat capacity at constant pressure", "conditions": "101.33 kPa, Crystal 1, Small (less than 1 g) adiabatic calorimetry", "note": "± gives the expanded uncertainty stated by the source.", "data": [{"smiles": "CC(C)[C@@H]1CC[C@@H](C)C[C@H]1O", "note": "[L-menthol]", "values": [{"measurement": "molar heat capacity at constant pressure", "setting": "5 K", "result": "0.858 ± 0.036", "unit": "J/K/mol"}, {"measurement": "molar heat capacity at constant pressure", "setting": "10 K", "result": "5.528 ± 0.13", "unit": "J/K/mol"}, {"measurement": "molar heat capacity at constant pressure", "setting": "15 K", "result": "12.7 ± 0.25", "unit": "J/K/mol"}, {"measurement": "molar heat capacity at constant pressure", "setting": "20 K", "result": "20.26 ± 0.33", "unit": "J/K/mol"}, {"measurement": "molar heat capacity at constant pressure", "setting": "25 K", "result": "27.36 ± 0.37", "unit": "J/K/mol"}, {"measurement": "molar heat capacity at constant pressure", "setting": "30 K", "result": "33.65 ± 0.35", "unit": "J/K/mol"}, {"measurement": "molar heat capacity at constant pressure", "setting": "35 K", "result": "39.12 ± 0.33", "unit": "J/K/mol"}, {"measurement": "molar heat capacity at constant pressure", "setting": "40 K", "result": "44.06 ± 0.29", "unit": "J/K/mol"}, {"measurement": "molar heat capacity at constant pressure", "setting": "45 K", "result": "48.69 ± 0.31", "unit": "J/K/mol"}, {"measurement": "molar heat capacity at constant pressure", "setting": "50 K", "result": "53.14 ± 0.33", "unit": "J/K/mol"}, {"measurement": "molar heat capacity at constant pressure", "setting": "55 K", "result": "57.47 ± 0.36", "unit": "J/K/mol"}, {"measurement": "molar heat capacity at constant pressure", "setting": "60 K", "result": "61.81 ± 0.38", "unit": "J/K/mol"}, {"measurement": "molar heat capacity at constant pressure", "setting": "65 K", "result": "66.15 ± 0.4", "unit": "J/K/mol"}, {"measurement": "molar heat capacity at constant pressure", "setting": "70 K", "result": "70.48 ± 0.43", "unit": "J/K/mol"}, {"measurement": "molar heat capacity at constant pressure", "setting": "75 K", "result": "74.81 ± 0.45", "unit": "J/K/mol"}, {"measurement": "molar heat capacity at constant pressure", "setting": "80 K", "result": "79.11 ± 0.47", "unit": "J/K/mol"}, {"measurement": "molar heat capacity at constant pressure", "setting": "85 K", "result": "83.38 ± 0.49", "unit": "J/K/mol"}, {"measurement": "molar heat capacity at constant pressure", "setting": "90 K", "result": "87.62 ± 0.52", "unit": "J/K/mol"}, {"measurement": "molar heat capacity at constant pressure", "setting": "95 K", "result": "91.81 ± 0.55", "unit": "J/K/mol"}, {"measurement": "molar heat capacity at constant pressure", "setting": "100 K", "result": "95.95 ± 0.56", "unit": "J/K/mol"}, {"measurement": "molar heat capacity at constant pressure", "setting": "105 K", "result": "100 ± 0.6", "unit": "J/K/mol"}, {"measurement": "molar heat capacity at constant pressure", "setting": "110 K", "result": "104 ± 0.6", "unit": "J/K/mol"}, {"measurement": "molar heat capacity at constant pressure", "setting": "115 K", "result": "108 ± 0.6", "unit": "J/K/mol"}, {"measurement": "molar heat capacity at constant pressure", "setting": "120 K", "result": "111.8 ± 0.6", "unit": "J/K/mol"}, {"measurement": "molar heat capacity at constant pressure", "setting": "125 K", "result": "115.7 ± 0.7", "unit": "J/K/mol"}, {"measurement": "molar heat capacity at constant pressure", "setting": "130 K", "result": "119.4 ± 0.7", "unit": "J/K/mol"}, {"measurement": "molar heat capacity at constant pressure", "setting": "135 K", "result": "123.1 ± 0.7", "unit": "J/K/mol"}, {"measurement": "molar heat capacity at constant pressure", "setting": "140 K", "result": "126.8 ± 0.7", "unit": "J/K/mol"}, {"measurement": "molar heat capacity at constant pressure", "setting": "145 K", "result": "130.4 ± 0.7", "unit": "J/K/mol"}, {"measurement": "molar heat capacity at constant pressure", "setting": "150 K", "result": "134 ± 0.7", "unit": "J/K/mol"}, {"measurement": "molar heat capacity at constant pressure", "setting": "155 K", "result": "137.5 ± 0.8", "unit": "J/K/mol"}, {"measurement": "molar heat capacity at constant pressure", "setting": "160 K", "result": "141.1 ± 0.8", "unit": "J/K/mol"}, {"measurement": "molar heat capacity at constant pressure", "setting": "165 K", "result": "144.6 ± 0.8", "unit": "J/K/mol"}, {"measurement": "molar heat capacity at constant pressure", "setting": "170 K", "result": "148.1 ± 0.8", "unit": "J/K/mol"}, {"measurement": "molar heat capacity at constant pressure", "setting": "175 K", "result": "151.6 ± 0.8", "unit": "J/K/mol"}, {"measurement": "molar heat capacity at constant pressure", "setting": "180 K", "result": "155.1 ± 0.8", "unit": "J/K/mol"}, {"measurement": "molar heat capacity at constant pressure", "setting": "185 K", "result": "158.6 ± 0.8", "unit": "J/K/mol"}, {"measurement": "molar heat capacity at constant pressure", "setting": "190 K", "result": "162.2 ± 0.9", "unit": "J/K/mol"}, {"measurement": "molar heat capacity at constant pressure", "setting": "195 K", "result": "165.7 ± 0.9", "unit": "J/K/mol"}, {"measurement": "molar heat capacity at constant pressure", "setting": "200 K", "result": "169.3 ± 0.9", "unit": "J/K/mol"}, {"measurement": "molar heat capacity at constant pressure", "setting": "205 K", "result": "172.8 ± 0.9", "unit": "J/K/mol"}, {"measurement": "molar heat capacity at constant pressure", "setting": "210 K", "result": "176.4 ± 1", "unit": "J/K/mol"}, {"measurement": "molar heat capacity at constant pressure", "setting": "215 K", "result": "180 ± 1", "unit": "J/K/mol"}, {"measurement": "molar heat capacity at constant pressure", "setting": "220 K", "result": "183.7 ± 1", "unit": "J/K/mol"}, {"measurement": "molar heat capacity at constant pressure", "setting": "225 K", "result": "187.4 ± 1", "unit": "J/K/mol"}]}]}
